PMC3098202, “Inhibition of Both HIV-1 Reverse Transcription and Gene Expression by a Cyclic Peptide that Binds the Tat-Transactivating Response Element (TAR) RNA” (PLoS Pathogens, 2011)
Where two headings read alike, the source gives them in different places. Peptide text beside a SMILES is read from it.

Key:
HIV NL4-3 = experiment: Inhibition of HIV NL4-3 in PHA/IL-2 stimulated human PBMC; type: cell-based, HIV-1; conditions: Human immunodeficiency virus 1, NL43; human PBMC stimulated with PHA/IL-2; RT activity in supernatant at 8 and 10 days post-infection
Experimental: Figure 2 Testing the susceptibility of HIV-1 to inhibition by Tat peptidomimetics. (A) Comparison of the relative inhibition of the HIV-1 NL4-3 laboratory strain by three lead Tat peptidomimetics. Virus production in cell free supernatant was measured using an endogenous RT assay. […] (D) L-50 inhibition of viral replication of three primary CCR5-tropic HIV-1 isolates measured in U87.CD4.CCR5 cells (A1 is the subtype A Rawandan isolate A1-92RW009, B5 is the subtype B isolate B5-91US056 from the USA and C5 is the subtype C isolate C5-97ZA003 from South Africa) and of CXCR4-tropic strains (D1 is the Ugandan subtype D isolate D1-92UG021, E6 is the subtype A/E circulating recombinant isolate CRF01_AE from Thailand) as well as the laboratory strain HIV-1NL4-3 measured in U87.CD4.CXCR4 cell cultures. […] (E) Inhibition of HIV NL4-3 was also measure in human peripheral blood mononuclear cells stimulated with PHA/IL-2. […] Virus production was measured at 8 and 10 days post-infection by the RT activity in the supernatant (cpm/mL).
Drug sensitivity assays were performed on U87.CD4.CXCR4/CCR5 cells and in peripheral blood mononuclear cells (PBMC). […] Supernatant aliquots were removed and virus production was quantified by reverse transcriptase assay. […] Cells were incubated for 72 h and then treated with lysis buffer and luciferase activity was determined. […]

HIV-1NL4-3 [1] = experiment: Inhibition of HIV-1 NL4-3 replication in U87.CD4.CXCR4 cells (RT activity in supernatant); type: cell-based
Experimental: Drug sensitivity assays were performed on U87.CD4.CXCR4/CCR5 cells and in peripheral blood mononuclear cells (PBMC). Peptidomimetics or control drugs were added to cells to yield final concentrations between 100 µM and 10 nM. Cells were incubated with drug for 1 h and exposed to the virus at a multiplicity of infection of 0.001, incubated with the virus for 24 h, and input virus washed away. Supernatant aliquots were removed and virus production was quantified by reverse transcriptase assay. Virus production at each drug concentration was normalized and the relative values were plotted versus drug concentration to determine 50% inhibitory concentrations (IC50). Variations on these drug susceptibility assays are defined in each figure and related text. For the time-of-drug-inhibition experiments, HIV-1 was spinonculated onto U87-CD4/CCR5 cells as previously described. The cells were washed twice with cold phosphate buffered saline (PBS) to remove unbound virions. Cells were resuspended in cold medium and split into 96-well plates (50 µl/well). […] Cells were incubated for 72 h and then treated with lysis buffer and luciferase activity was determined. The same procedure was utilized for the time-of-drug-addition experiment involving cell-to-cell fusion. […]

[2] = system: murine leukemia virus (MLV); type: cell-based
HIV-1Luc-AM = type: cell-based
[3] = system: Tat/Rev-dependent luciferase after 293T (HIV-1 Env) / U87.CD4.CXCR4 cell fusion; conditions: for t1/2, time of drug addition that maintains 50% inhibition, cell-to-cell fusion: monophasic, Tat/Rev-dependent luciferase in cell lysates, triplicate
[4] = system: HIV-1NL4-3 carrying firefly luciferase; type: cell-based; conditions: for t1/2, time of drug addition that maintains 50% inhibition: AMD3100 10 µM, T20 10 µM, 3TC 100 µM, Raltegravir 10 µM, DRB 50 µM
HIV-1 LTR promoter = experiment: pLTR.LUC reporter alone or co-transfected with HIV-1NL4-3 in 293T cells (Figure 4); type: cell-based
HIV-1NL4-3 [5] = experiment: Infection of U87.CD4.CXCR4 cells with supernatants of L-50-treated 293T transfections (Figure 4D); type: cell-based
Experimental: To test whether the virus released from transfected cells could be inhibited by L-50 under conditions of multiple-cycle growth, virus-containing supernatants from 293T transfections (containing L-50) were used to infect U87.CD4.CXCR4 cells (which support multiple rounds of HIV-1 replication) and viral progeny were measured 10 days post-infection. […] Removal of L50 from virus was attempted by pelleting virus from supernatant of L50-treated cells transfected with NL4-3. It is important to note that virus production was already decreased by L50 at least 50% from transfected cells.

[6] = system: (-) strand strong stop DNA synthesis by recombinant HIV-1 RT (p66/p51) on wild type TAR template; experiment: Reconstituted in vitro reverse transcription, wild type R_U5_pbs RNA template; type: biochemical
Excerpt: This assay measures the synthesis of (-) strand strong stop DNA by recombinant HIV-1 RT (p66/p51) from an 18 nt DNA primer, pre-annealed to an HIV-1 RNA template encompassing the repeat (R), 5′ unique sequence (U5), and the primer binding sequence (PBS) [49].
HIV-1 RNA representing the wild type R, U5, pbs, and uncoding sequence (270 nt) (wt R_U5_pbs RNA) was produced by in vitro T3 transcription (T3 MegaScript, Ambion) from a PCR product (with T3 extended primer) derived from NL4-3. […] The DNA primer (18 nt), complementary to the primer binding sequence (3′ end of tRNA^Lys,3), was annealed to the template as described [78]. The DNA primer was annealed to the various HIV-1 RNA templates by denaturation and annealing conditions previously described [78]. […] Reactions were incubated at 37°C for 45 min and then quenched with formamide EDTA loading buffer [78] for subsequent electrophoresis on a 8% denaturing polyacrylamide gel. Gels were autoradiographed and analyzed with a BioRad phosphorimager.

[7] = system: Tat-mediated transactivation of HIV-1 LTR; experiment: LTR-luciferase reporter + Tat in 293T cells (Figure 3B); type: cell-based; conditions: 10 µM
[8] = system: (-) strand strong stop DNA synthesis by HIV-1 RT on mutant TAR template; experiment: Reconstituted in vitro reverse transcription, mutant TAR RNA template; type: biochemical; conditions: 8 µM
Excerpt: To determine if L-50 inhibition of reverse transcription was dependent on the high affinity Tat-binding site located at the TAR bulge, mutations that inactivate Tat-binding were introduced into the RNA template (Figure 9A).
The mutant TAR RNA transcript (with mutations 5′-UCUG-3′ to 5′-UGGU-3′ in the bulge) was generated by T3 transcription from a PCR product with the forward primer having the nt substitutions for site-directed mutagenesis. […] The DNA primer (18 nt), complementary to the primer binding sequence (3′ end of tRNA^Lys,3), was annealed to the template as described [78]. The DNA primer was annealed to the various HIV-1 RNA templates by denaturation and annealing conditions previously described [78]. […] Reactions were incubated at 37°C for 45 min and then quenched with formamide EDTA loading buffer [78] for subsequent electrophoresis on a 8% denaturing polyacrylamide gel. Gels were autoradiographed and analyzed with a BioRad phosphorimager.

BIV TAR RNA = conditions: Discussion; cited from earlier work
Excerpt: Our design of inhibitors of the TAR RNA-Tat protein interaction started with the assumption that constrained peptidomimetics would provide effective rationale to block the relatively large interfaces formed between the viral protein and its cognate RNA [24]–[27]. The D-Pro-L-Pro template restricts pharmacophores into planar ß-hairpin structures with side chains emerging from each side. […] Specific and high affinity binding allow ...

CMV promoter = CMV promoter luciferase control reporter in 293T cells; type: cell-based
[9] = system: Tat-dependent transcription from HIV-1 LTR; experiment: Tat-dependent transactivation in cell-free transcription; type: biochemical
[10] = system: HIVNL4-3 transcription / virus production; experiment: Single-cycle growth assay, 293T cells transfected with pNL4-3 (Figure 3C); conditions: 50 µM; 293T cells transfected with HIVNL4-3; monitored by RT activity
HIV-1 TAR = conditions: cited from earlier work
Excerpt: Linear peptide derivatives have been used previously to target TAR RNA and block Tat binding, [17], [20], [21] but their utility was limited by conformational flexibility which allowed non-specific RNA binding. To avoid this problem we have developed conformationally constrained mimics of HIV-1 Tat [24]–[27] based on the structure of the BIV (Bovine Immunodeficiency Virus) Tat-TAR complex, [29] (Figure 1). Specifically, we constructed a series of ß-hairpin mimics with 12-residue loops on a heterochiral D-Pro-L-Pro dipeptide scaffold. This D-Pro-L-Pro scaffold strongly ... || Our design of inhibitors of the TAR RNA-Tat protein interaction started with the assumption that constrained peptidomimetics would provide effective rationale to block the relatively large interfaces formed between the viral protein and its cognate RNA [24]–[27]. The D-Pro-L-Pro template restricts pharmacophores into planar ß-hairpin structures with side chains emerging from each side. […] Specific and high affinity binding allow ...

[11] = system: HIV-1NL4-3 carrying firefly luciferase; conditions: cited from earlier work
Excerpt: There is also evidence that Tat plays a role in viral reverse transcription, although much of this work has been controversial. Loss of function Tat mutants have been reported to impair reverse transcription 3- to 5-fold compared to wild type HIV-1 both in infected T cells and in endogeneous reverse transcription reactions, [69]. Tat-mediated RNA secondary structure remodeling may facilitate obligatory strand transfers during viral DNA synthesis by reverse transcriptase. However, it is possible to create replication-competent viruses where the TAR RNA sequence is replaced by a ...

[12] = U87.CD4.CXCR4 cells, Tat-independent SV40-driven reporter
[13] = synchronized infection, luciferase at 72 h, triplicate
[14] = L50 250 µM, synchronized infection, luciferase at 72 h, triplicate

Nc1ccn([C@@H]2CS[C@H](CO)O2)c(=O)n1 [3TC]
IC50 (HIV NL4-3): 10 nM | IC50 (HIV-1NL4-3 [1]; Human immunodeficiency virus 1, virus production by RT assay, MOI 0.001): 120 ± 30 nM | Inhibition of MLV replication (words, Discussion) [2]: blocked MLV replication | Luciferase expression in HIV-1Luc-AM infected cells (HIV-1Luc-AM; [12]): efficiently inhibited

c1cc(CN2CCCNCCNCCCNCC2)ccc1CN1CCCNCCNCCCNCC1 [AMD3100, reference compound]
Inhibition of cell-to-cell fusion [3]: highly sensitive to inhibition | t1/2, time of drug addition that maintains 50% inhibition [4, 13]: 0.77 h

Cc1cn([C@H]2C[C@H](N=[N+]=[N-])[C@@H](CO)O2)c(=O)[nH]c1=O [AZT]
Inhibition of MLV replication (words, Discussion) [2]: blocked MLV replication | Inhibition of MLV replication ([2]; 100 µM): completely blocked

OC[C@H]1O[C@@H](n2cnc3cc(Cl)c(Cl)cc32)[C@H](O)[C@@H]1O [DRB, 5,6-dichloro-1-ß-D-ribobenzimidazole, reference compound]
t1/2, time of drug addition that maintains 50% inhibition, cell-to-cell fusion [3]: 11.3 h | t1/2, time of drug addition that maintains 50% inhibition [4, 13]: 35.3 h | Luciferase expression in HIV-1Luc-AM infected cells (HIV-1Luc-AM; [12]): efficiently inhibited

CC[C@H](C)[C@@H]1NC(=O)[C@H](CCCNC(=N)N)NC(=O)[C@H](CCCNC(=N)N)NC(=O)[C@H](CCCCN)NC(=O)CNC(=O)[C@H](CCCNC(=N)N)NC(=O)[C@H]([C@@H](C)O)NC(=O)[C@H](CCCNC(=N)N)NC(=O)[C@H](C(C)C)NC(=O)[C@H](CCCNC(=N)N)NC(=O)[C@@H]2CCCN2C(=O)[C@H]2CCCN2C(=O)[C@H](CCCNC(=N)N)NC(=O)[C@H](CCCNC(=N)N)NC1=O [L-50] (HELM PEPTIDE1{R.V.R.T.R.G.K.R.R.I.R.R.[dP].P}$PEPTIDE1,PEPTIDE1,1:R1-14:R2$$$V2.0)
Decrease in luciferase expression (pLTR.LUC + HIV-1NL4-3) (HIV-1 LTR promoter; 200 µM, 293T cells, p = 0.03, N = 5): 1.7 fold | HIV-1 virion expression (HIV-1 LTR promoter; 200 µM, RT activity in cell-free supernatant of transfected 293T cells): modest, but reproducible reduction | Luciferase expression in cells transfected with either reporter plasmid alone (HIV-1 LTR promoter; 293T cells, no Tat): did not inhibit | Inhibition of cell-to-cell fusion [3]: no measurable inhibition | t1/2, time of drug addition that maintains 50% inhibition, cell-to-cell fusion [3]: 8.2 h | Decrease of virus production from transfected cells (HIV-1NL4-3 [5]; 293T cells transfected with NL4-3): at least 50% | Viral progeny 10 days post-infection (HIV-1NL4-3 [5]; U87.CD4.CXCR4 cells infected with virus made in the presence of L-50): No measurable viral progeny | Inhibition of (−) strong stop synthesis on the wild type template ([6]; 8 µM): 80% | IC50 ([6]; read-out: IC50, inhibition of (−) strand strong stop DNA synthesis (as printed in picture of Figure 8B)): 5500 ± 570 nM | IC50 ([6]; recombinant HIV-1 RT, 18 nt DNA primer, RNA template ∼2 µM, 37°C 45 min, triplicate, read-out: IC50, inhibition of (−) strand strong stop DNA synthesis): 5500 ± 570 nM | Reduction of Tat-mediated transactivation [7]: 53% | Inhibition of (−) strong stop DNA synthesis on template with mutations in the TAR L-50 binding site [8]: less than 10% | Discrimination against BIV TAR RNA sequence (BIV TAR RNA): effectively discriminated | Reduction of transcription from control CMV promoter (CMV promoter; 10 µM, 293T cells): 12% | Reduction of CMV promoter-driven luciferase activity (CMV promoter; 50 µM, 293T cells cotransfected with HIVNL4-3): less than 5% | CMV promoter-driven luciferase expression with HIV-1NL4-3 (CMV promoter; 293T cells, Figure 4B): not significantly inhibited | Inhibition of HIV-1NL4-3 replication (HIV-1NL4-3 [1]; Figure 2A): able to inhibit replication | t1/2, first (early) phase of biphasic inhibition [4, 14]: 1.8 h | t1/2, second (late) phase of biphasic inhibition [4, 14]: 35.7 h | Block of viral replication in the initial inhibitory phase ([4]; added up to approximately 2 h post infection): ~100% | IC50 ([9]; cell-free transcription, nuclear extract, recombinant Tat, 20 min at 30°C, read-out: IC50, decrease of full-length transcripts (ρ)): 50 nM | Production of short transcripts (τ) ([9]; internal control for non-specific inhibition of transcription): largely unaffected | Inhibition of MLV [2]: did not inhibit | Inhibition of MLV replication (words, Discussion) [2]: did not | Luciferase expression in HIV-1Luc-AM infected cells (HIV-1Luc-AM): efficiently blocked | Inhibition of production of the viral RNA [10]: 76% | Affinity for HIV-1 TAR (HIV-1 TAR; Discussion): nanomolar affinities | Kd (HIV-1 TAR; in vitro): 1 nM

Cc1ccnc2c1NC(=O)c1cccnc1N2C1CC1 [NVP]
IC50 (HIV NL4-3): 65 nM | t1/2 of nevirapine in time-of-drug-addition [11]: ~7 h

Cc1nnc(C(=O)NC(C)(C)c2nc(C(=O)NCc3ccc(F)cc3)c(O)c(=O)n2C)o1 [Raltegravir, reference compound]
t1/2, time of drug addition that maintains 50% inhibition [4, 13]: 11.5 h
